The source of these data is ChEMBL document CHEMBL3627697, “Aminopyrazolo[1,5-a]pyrimidines as potential inhibitors of Mycobacterium tuberculosis: Structure activity relationships and ADME characterization” (Bioorg Med Chem, 2015).

A short description of series [1]: Metabolic stability in rat liver microsomes assessed as compound remaining at 0.1 uM measured at 30 mins by LC-MS/MS analysis. It counts as ADME. The settings on record: read-out: Stability. On the technique in general: Microsomes from liver hold many membrane-bound enzymes, among them those of drug oxidation.
Another series relates to CHO. Put plainly: Cytotoxicity against CHO cells assessed as cell viability by MTT assay. The note with it: Cricetulus griseus. In kind it is cell-based. (In general: Tetrazolium assays rely on reduction of a dye to a coloured formazan, in cell work by metabolically active cells.)
The nature of series [2]: Kinetic solubility of the compound at pH 7.4 after 2 hrs by shake flask method-based HPLC-DAD analysis. It counts as physicochemical. The settings on record: buffer, read-out: Kinetic_solubility.
For series [3], the system named is Mycobacterium tuberculosis. Put plainly: Antimycobacterial activity against Mycobacterium tuberculosis H37Rv in 7H9/ADC/Tween medium measured at day 14 by Alamar Blue assay. The note with it: 336 h. In kind it is functional. A general note: The colour change of resazurin is a common sign of viable cells or microbes.
Series [4] relates to Mycobacterium tuberculosis. Put plainly: Antimycobacterial activity against Mycobacterium tuberculosis H37Rv in GAST medium with low Fe level measured at day 14 by Alamar Blue assay. It counts as functional. The settings on record: 336 h.
Series [5] is described as follows: Metabolic stability in mouse liver microsomes assessed as compound remaining at 0.1 uM measured at 30 mins by LC-MS/MS analysis. It counts as ADME. The note with it: read-out: Stability.
The subject of series [6] is Mycobacterium tuberculosis. In words: Antimycobacterial activity against Mycobacterium tuberculosis H37Rv in GAST-Fe medium measured at day 14 by Alamar Blue assay. In kind it is functional. The settings on record: 336 h.
Series [7] can be described thus: Metabolic stability in human liver microsomes assessed as compound remaining at 0.1 uM measured at 30 mins by LC-MS/MS analysis. In kind it is ADME. The note with it: read-out: Stability.

SMILES strings stand for the structures. Values after ≈ are worked out from the molar mass of the structure shown. Bounds are passed on as bounds.

For orientation: IC50 means the concentration needed to halve the response being measured. What is called MIC99 is an inhibitory concentration at the 99% level, which refers to growth in some studies and to a panel of isolates in others. As for `Cc1cc(NCc2ccccn2)n2nc(C)c(-c3ccccc3)c2n1`, the remaining at 0.5 h, 0.1 µM turned out to be 39% in series [1], 6.2% in series [5] and 51.9% in series [7]. Also, the IC50 in the series with CHO was 34 µM. Also, the solubility kinetic at 2 h in series [2] is less than 5 µM. Further, the MIC99 is 5 µM (≈ 1.65 µg/mL) in series [3], more than 160 µM in series [4] and more than 160 µM in series [6].

`Cc1cc(NCc2nccn2C)n2nc(C)c(-c3ccccc3)c2n1`: the half-inhibitory concentration (IC50) with CHO was less than 9 µM. The solubility kinetic at 2 h in series [2] is 26.9 µM (≈ 8.94 µg/mL). In addition, the results for the MIC99 in series [3], in series [4] and in series [6] were 5 µM (≈ 1.66 µg/mL), 20 µM (≈ 6.65 µg/mL) and 37 µM (≈ 12.3 µg/mL), respectively.

On to `Cc1cc(NCc2ccccn2)n2ncc(-c3cccc(Cl)c3)c2n1`, for which the IC50 in the series with CHO turned out to be 3.78 µM. Further, the solubility kinetic at 2 h in series [2] is less than 5 µM. Further, the MIC99 was 2.5 µM (≈ 0.875 µg/mL) in series [3], more than 160 µM in series [4] and more than 160 µM in series [6].

Regarding `Cc1cc(NCc2ccccn2)n2ncc(-c3ccccc3F)c2n1`, the IC50 with CHO came to 5.45 µM. The solubility kinetic at 2 h in series [2] amounted to 5 µM (≈ 1.67 µg/mL). Besides, the MIC99 in series [3] was 2.5 µM (≈ 0.833 µg/mL); in series [4], more than 160 µM; in series [6], more than 160 µM.

With `Cc1cc(NCc2ccc(F)cn2)n2nc(C)c(-c3ccccc3)c2n1`, the remaining at 0.5 h, 0.1 µM in series [1] was determined as 45.5%; in series [5] it was 5.3%; in series [7] it was 31.4%. The IC50 in the series on CHO was 22 µM. Also, the solubility kinetic at 2 h in series [2] is less than 5 µM. For the same compound, the values for the MIC99 in series [3], in series [4] and in series [6] were 5 µM (≈ 1.74 µg/mL), more than 160 µM and 20 µM (≈ 6.95 µg/mL), respectively.
